Measurements published in US20210353624A1, “METHOD OF TREATING CANCER WITH TELOTRISAT OR A PRODRUG THEREOF” (TerSera Therapeutics LLC, priority 2020, published 2021).

What was measured:
Format in all cases: in vivo, human
[1] = Changes in carcinoid syndrome symptoms, body weight and ECOG Performance Status after TE initiation (TELEACE)
From the text: Time to tumor progression was defined as the time from telotristat ethyl initiation to the first documented tumor progression in the medical chart. […] Progression-free survival (PFS) was defined as the time from telotristat ethyl initiation to tumor progression or death. […] Physician-assessed changes in body weight, Eastern Cooperative Oncology Group (ECOG) Performance Status, and CS symptoms including diarrhea, flushing, abdominal pain, nausea and ascites were abstracted from medical charts before and after telotristat ethyl initiation. In order to evaluate the effect of telotristat ethyl treatment on secondary clinical outcomes, analyses were conducted in the overall population and in a subgroup of patients who had the same documented non-telotristat ethyl neuroendocrine tumor treatment before and after telotristat ethyl initiation. Descriptive statistics summarized patient demographic and clinical characteristics, and changes in body weight and ECOG Performance Status after telotristat ethyl treatment initiation. Kaplan-Meier analyses estimated median time to tumor progression and median PFS. Chi-square test evaluated changes in documented CS symptoms (improved vs same/worsened) before and after telotristat ethyl initiation. All analyses were performed using SAS version 9.4 (SAS Institute, Cary, N.C., USA). To evaluate the change in CS symptoms, weight, and ECOG performance status between the pre- and post-TE periods, patients with documented CS symptoms (i.e., abdominal pain, ascites, diarrhea, flushing, nausea) pre-TE initiation were described using proportions and frequencies. The change in documented CS symptoms, weight, and ECOG performance status after TE Initiation (i.e., improved/increased, stayed the same/remained unchanged, worsened/decreased) were also described using proportions and frequencies. P-values were calculated using Chi-square test for equal proportions for change in CS symptoms (i.e., proportion of patients with improved vs. stayed the same/worsened CS symptoms).

[2] = Physician assessed outcomes in TELEACE subgroup with worsening tumor status at TE initiation
From the text: A follow-up analysis of real-world clinical practice experience with TE was initiated in patients with physician-documented worsening tumor status based on radiological reports. The analysis was directed to the subgroup of patients from the TELEACE study with worsening tumor status at the time of TE initiation. Baseline carcinoid syndrome (CS) symptoms, Eastern Cooperative Oncology Group (ECOG) performance status, and weight were compared after at least six months of TE treatment.
A total of 33 patients (17%) in TELEACE had worsened tumor status at the time TE of initiation. The mean patient age was 60 years, with 58% female and 76% white. The majority of these patients had intermediate grade tumor (67%). Prior to TE initiation, 61% had received SSA treatment, and 33% had received other NET treatment, which included liver-directed therapy, surgery, chemotherapy, targeted therapy, and Peptide Receptor Radionuclide Therapy (PRRT). The average duration of TE treatment was 14±10.5 months. […] Additionally, a majority of patients had significant improvement/remained stable in CS symptoms, ECOG performance status, and weight after TE initiation (Table 6).

5-HT = assay: Biomarker changes after TE initiation (TELEACE): 5-HT; settings: n=22
Experimental: This example provides the effects of telotristat ethyl treatment on selected patient biomarkers (i.e., u5-HIAA; CgA; 5-HT; and NT-proBNP) in the retrospective, single arm study of Example 4.
The average (SD) duration of documented TE treatment was 12.0 (7.3) months with a median (IQR) of 9.0 (6.8, 15.2) months. In many cases, a patient received a TE dosage of 250 mg three times per day.
The continuous measures of biomarker values pre- and post-TE initiation were described using mean, SD, median, and IQR. The biomarkers were assessed only among patients with complete biomarker assessment results in both pre-TE and post-TE initiation periods. A Wilcoxon signed rank test was used to calculate P-values for the mean change in biomarker value.
Patients with reported biomarker values below, at, or above normal range in pre-TE and post-TE initiation periods were described using proportions and frequencies. The biomarkers were assessed only among patients with complete biomarker assessment results in both pre-TE and post-TE initiation periods. McNemar's test was used to calculate P-values for the differences in paired proportions of patients with values above the upper limit of normal.
To evaluate the relationship between the change in biomarker values (i.e., u5-HIAA; CgA; 5-HT) and the change in tumor progression between the pre- and post-TE periods, Pearson's correlation coefficient was used to assess the correlation between biomarker assessments and tumor sizes and to derive the associated P-values. The correlations were assessed only among patients with complete biomarker assessment results in both pre-TE and post-TE initiation periods. The relationship between biomarker values and tumor sizes during pre-TE and post-TE initiation period was presented using scatterplots.
For the biomarker results below, the pre-TE initiation period is defined as 12 months before the index date (initiation of TE). The assessment closest to the index date during the pre-TE period was reported for each biomarker.
The post-TE initiation period is defined as a period from index date to the earlier of end of treatment with TE or date of chart abstraction. The assessment closest to the date of chart abstraction during the post-TE period was reported for each biomarker.
The data includes patients with reported biomarker values, units, and laboratory ranges during pre- and post-TE initiation periods. It excludes patients who had different biomarker units or laboratory ranges reported pre- and post-TE initiation.
The normal range was defined by reported laboratory lower limit of normal and upper limit of normal.
The Wilcoxon signed rank test was used to calculate P-values for the mean change in biomarker values pre- and post-TE initiation.
Table 5-4 is based on patients who had complete biomarker assessment results (u5-HIAA: N=22; 5-HT: N=22) in both pre-TE and post-TE initiation periods. Correlation analysis was not conducted for CgA and NT-proBNP due to small sample sizes for CgA (n=15) and NT-proBNP (n=2). Pearson's correlation coefficient was used to assess the correlation between biomarker assessments and tumor sizes and to derive the associated P-values. Values have been converted to mg/24 hours based on the following conversion rate: […].

## CCOC(=O)[C@@H](N)Cc1ccc(-c2cc(O[C@H](c3ccc(Cl)cc3-n3ccc(C)n3)C(F)(F)F)nc(N)n2)cc1 [telotristat ethyl, (S)-ethyl 2-amino-3-(4-(2-amino-6-((R)-1-(4-chloro-2-(3-methyl-1H-pyrazol-1-yl)phenyl)-2,2,2-trifluoroethoxy)pyrimidin-4-yl)phenyl)propanoate]
[1]; overall population and same NET treatment subgroup
  Body weight and ECOG Performance Status after telotristat ethyl: improved or unchanged for most patients
[1]; overall population, n=41
  patients with improvement in nausea after TE initiation: 78%
[1]; overall population, n=69
  patients with improvement in abdominal pain after TE initiation: 81%
[1]; overall population, n=88
  patients with improvement in flushing after TE initiation: 81%
[1]; overall population, n=133
  patients with improvement in diarrhea after TE initiation: 85%
[2]; 33 patients with worsened tumor status at TE initiation, n = 26, P<0.001
  Diarrhea: Improved: 88%
[2]; 33 patients with worsened tumor status, TE treatment 14±10.5 months
  CS symptoms compared to baseline measures: each patient experienced improvement in at least one CS symptom
[2]; worsened tumor status subgroup, n = 4
  Nausea: Remained the Same: 20%
[2]; worsened tumor status subgroup, n = 4, P=0.432
  Nausea: Improved: 80%
[2]; worsened tumor status subgroup, n = 8
  Abdominal pain: Remained the Same: 11%
[2]; worsened tumor status subgroup, n = 8, P=0.020
  Abdominal pain: Improved: 89%
[2]; worsened tumor status subgroup, n = 14
  Flushing: Remained the Same: 18%
[2]; worsened tumor status subgroup, n = 14, P=0.008
  Flushing: Improved: 82%
[2]; worsened tumor status subgroup, n = 26
  Diarrhea: Remained the Same: 12%
[2]; worsened tumor status subgroup, n = 31
  Weight: Remained the Same: 55%
[2]; worsened tumor status subgroup, n = 31, P=0.017
  Weight: Improved: 32%
[2]; worsened tumor status subgroup, n = 33
  ECOG score: Remained the Same: 73%
[2]; worsened tumor status subgroup, n = 33, P<0.001
  ECOG score: Improved: 24%
5-HT; IQR 320.0, 700.0, pre-TE 459.5 (389.0, 701.0)
  5-HT Measurement (ng/24 hours) Post-TE Initiation, Median (IQR): 399.5 ng/24 hours
5-HT; pre-TE 0 (0)
  5-HT Below normal range Post-TE, n (%): 0 (0) n (%)
5-HT; pre-TE 1 (4.5)
  5-HT At normal range Post-TE, n (%): 2 (9.1) n (%)
5-HT; pre-TE 21 (95.5), P=0.317
  5-HT Above normal range Post-TE, n (%): 20 (90.9) n (%)
5-HT; pre-TE 648.9 ± 448.1, P=0.026
  5-HT Measurement (ng/24 hours) Post-TE Initiation, Mean ± SD: 533.5 ± 329.2 ng/24 hours
